In patent publication US20100227859A1, “TRICYCLIC COMPOUNDS AS MATRIX METALLOPROTEINASE INHIBITORS” (priority 2007, published 2010):

molecular target: purified human MMP-12 enzyme (Homo sapiens, UniProt P39900); experiment: MMP-12 FRET assay; format: biochemical; details: substrate 20 μM, room temperature
How it was run: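 Initial fluorescence rate (325/395 nm) of cleavage of MCA-Pro-Leu-Gly-Leu-Dpa(DNP)-Ala-Arg, 20 μM final, was followed for 30 min at room temperature after a 30 min enzyme–compound preincubation. Buffer: 50 mM HEPES pH 7.4, 100 mM NaCl, 5 mM CaCl2, 0.005% Brij-35, with 10% final DMSO. IC50 came from a Hill-type fit of rate versus inhibitor concentration.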

Sequence of purified human MMP-12 enzyme (P39900 106-470): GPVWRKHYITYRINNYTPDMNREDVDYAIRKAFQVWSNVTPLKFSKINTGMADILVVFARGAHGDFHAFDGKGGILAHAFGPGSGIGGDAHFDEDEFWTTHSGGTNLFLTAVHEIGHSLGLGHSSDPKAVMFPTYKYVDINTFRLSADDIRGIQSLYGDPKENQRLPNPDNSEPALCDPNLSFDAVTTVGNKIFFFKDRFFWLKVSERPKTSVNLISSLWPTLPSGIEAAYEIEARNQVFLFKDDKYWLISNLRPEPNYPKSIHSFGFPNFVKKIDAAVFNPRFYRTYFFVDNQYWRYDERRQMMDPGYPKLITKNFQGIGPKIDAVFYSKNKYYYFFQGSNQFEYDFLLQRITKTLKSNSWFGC

| SMILES | IC50 [nM] |
| --- | --- |
| Cc1nc(-c2cnc(-c3ccc4c(c3)oc3cc(S(=O)(=O)N[C@H](C(=O)O)C(C)C)ccc34)s2)no1 [Compound 228, (S)-3-methyl-2-(7-(5-(5-methyl-1,2,4-oxadiazol-3-yl)thiazol-2-yl)dibenzo[b,d]furan-3-sulfonamido)butanoic acid] | < 1.5 |
| CCc1ccc(-c2ccc3c(c2)oc2cc(S(=O)(=O)N[C@H](C(=O)O)C(C)C)ccc23)s1 [Compound 229, (S)-2-(7-(5-ethylthiophen-2-yl)dibenzo[b,d]furan-3-sulfonamido)-3-methylbutanoic acid] | < 1.5 |
| Cc1nc(C)c(-c2ccc3c(c2)oc2cc(S(=O)(=O)N[C@H](C(=O)O)C(C)C)ccc23)s1 [Compound 230, (S)-2-(7-(2,4-dimethylthiazol-5-yl)dibenzo[b,d]furan-3-sulfonamido)-3-methylbutanoic acid] | < 1.5 |
| CC(C)[C@H](NS(=O)(=O)c1ccc2c(c1)oc1cc(-c3ccc(C(C)(C)C)o3)ccc12)C(=O)O [Compound 231, (S)-2-(7-(5-tert-butylfuran-2-yl)dibenzo[b,d]furan-3-sulfonamido)-3-methylbutanoic acid] | 3.4 |
| CCCc1ccc(-c2ccc3c(c2)oc2cc(S(=O)(=O)N[C@H](C(=O)O)C(C)C)ccc23)s1 [Compound 232, (S)-3-methyl-2-(7-(5-propylthiophen-2-yl)dibenzo[b,d]furan-3-sulfonamido)butanoic acid] | < 1.5 |
| CC(C)[C@H](NS(=O)(=O)c1ccc2c(c1)oc1cc(-c3nc(C(F)(F)F)c(Cl)s3)ccc12)C(=O)O [Compound 233, (S)-2-(7-(5-chloro-4-(trifluoromethyl)thiazol-2-yl)dibenzo[b,d]furan-3-sulfonamido)-3-methylbutanoic acid] | < 1.5 |
| Cc1cnc(-c2ccc3c(c2)oc2cc(S(=O)(=O)N[C@H](C(=O)O)C(C)C)ccc23)s1 [Compound 234, (S)-3-methyl-2-(7-(5-methylthiazol-2-yl)dibenzo[b,d]furan-3-sulfonamido)butanoic acid] | < 1.5 |
| Cc1nc(CC(C)C)sc1-c1ccc2c(c1)oc1cc(S(=O)(=O)N[C@H](C(=O)O)C(C)C)ccc12 [Compound 235, (S)-2-(7-(2-isobutyl-4-methylthiazol-5-yl)dibenzo[b,d]furan-3-sulfonamido)-3-methylbutanoic acid] | 11 |
| CC(C)[C@H](NS(=O)(=O)c1ccc2c(c1)oc1cc(-c3nc4ccc(C(F)(F)F)cc4s3)ccc12)C(=O)O [Compound 236, (S)-3-methyl-2-(7-(6-(trifluoromethyl)benzo[d]thiazol-2-yl)dibenzo[b,d]furan-3-sulfonamido)butanoic acid] | 12 |
| CC(C)[C@H](NS(=O)(=O)c1ccc2c(c1)oc1cc(-c3nc4ccc(F)cc4s3)ccc12)C(=O)O [Compound 237, (S)-2-(7-(6-fluorobenzo[d]thiazol-2-yl)dibenzo[b,d]furan-3-sulfonamido)-3-methylbutanoic acid] | < 1.5 |
| CCc1ccc(-c2ccc3c(c2)oc2ccc(S(=O)(=O)N[C@@H](C(=O)O)C(C)C)cc23)s1 [Compound 239, (R)-2-(7-(5-ethylthiophen-2-yl)dibenzo[b,d]furan-2-sulfonamido)-3-methylbutanoic acid] | < 1.5 |
| CC(C)[C@@H](NS(=O)(=O)c1ccc2oc3cc(-c4ccc(C(C)(C)C)o4)ccc3c2c1)C(=O)O [Compound 240, (R)-2-(7-(5-tert-butylfuran-2-yl)dibenzo[b,d]furan-2-sulfonamido)-3-methylbutanoic acid] | 19 |
| CC(C)[C@H](NS(=O)(=O)c1ccc2oc3cc(-c4ccc(C(C)(C)C)o4)ccc3c2c1)C(=O)O [Compound 241, (S)-2-(7-(5-tert-butylfuran-2-yl)dibenzo[b,d]furan-2-sulfonamido)-3-methylbutanoic acid] | 170 |
| CCc1ccc(-c2ccc3c(c2)oc2ccc(S(=O)(=O)N[C@H](C(=O)O)C(C)C)cc23)s1 [Compound 242, (S)-2-(7-(5-ethylthiophen-2-yl)dibenzo[b,d]furan-2-sulfonamido)-3-methylbutanoic acid] | 8.4 |
